Assay results from PubChem BioAssay (NCI).
Where “and” joins values, the source holds several entries; their conditions need not be identical. Identical values can stand only once.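 Where inhibition never reached the appropriate level, the endpoint shown equals the highest concentration tested. Otherwise, values were interpolated linearly from a five-concentration, 48-hour dose response in 96-well plates. The concentration for 50% growth inhibition is given as GI50. Definition used: TGI = concentration required for complete inhibition of growth.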

test system: M14 melanoma; assay: NCI anticancer screen, dose series, 48 h

Compound	TGI [µM]
COc1ccc2c(c1)CC[C@@H]1[C@@H]2CC[C@]2(C)C(=O)/C(=C/c3ccc(OC)c(OC)c3)C[C@@H]12	> 100
CC1=C(Br)C(Br)=C(C)S1=O	33.8
C=CCn1c(=O)n(CC=C)c(=O)n(CC=C)c1=O	> 100
CCCCN1C=CN2c3nc4cc(C)c(C)cc4n3C(C(=O)OC)=C(C(=O)OC)C12 (stereo not given)	> 100
COC(=O)C(=C/c1ccc(OC)cc1)/C(C(=O)O)=C(/C)c1ccccc1	> 100
C=CCN1C[C@H](C)N([C@H](c2ccc(C(=O)N(CC)CCO)cc2)c2cccc(OC)c2)C[C@H]1C	> 100
CCC1OC2C(CC=C(C)C)=C3OC(C)(O)C(C)(CC)C(OC(=O)c4ccccc4)C3=C3OC(=O)C=C1C32 (stereo not given)	> 100
CCOC(=O)C(N=Nc1ccc(S(N)(=O)=O)cc1)C(C)=O (stereo not given)	> 100
Cc1ccc(C2CC(c3ccco3)=NN2c2ccccc2)o1 (stereo not given)	> 100
C/C(=C1/CCCC2(N=NCC2c2ccccc2)C1=O)c1ccccc1 (stereo not given)	29
CN1CCOC1(C)CO (stereo not given)	> 100
CCN1CCN(c2ccc(Nc3ccnc4ccc5nn(C)nc5c34)cc2)CC1	30
CC(C)CC1[C@@H](OCc2ccccc2)COS(=O)N1Cc1ccccc1 (stereo not given in full)	> 100
CC(=O)OC1CC2c3cccc4c3C(CC2N(C)C1=O)CN4C(=O)c1ccccc1 (stereo not given)	55.8
COc1ccc2c3c1O[C@H]1C(O)CCC4(O)[C@@H](C2)NCC[C@]314 (stereo not given in full)	> 100
CNC(=S)N/N=C(C)\C(=N/NC(=S)NC)c1ccccc1	> 100
O=C(O)c1nc(-c2ccccn2)c(-c2ccccn2)nc1C(=O)O	3.59
O=[N+]([O-])c1ccc(-n2nnc(C3=NCCCN3)c2-c2ccc(Cl)cc2)cc1	> 100
COc1cc2c(cc1OC)C(O)[C@H](Br)C(C)(C)O2 (stereo not given in full)	> 100
CCCCCC(C[N+]1(C)CCOCC1)C(=O)/C=C/c1ccccc1 (stereo not given)	25.9
COc1ccc2c(c1C)C(=O)C(O)(CC=C(C)C)O2 (stereo not given)	> 100
CCOC(=O)C1(C(=O)OCC)CN(CC)CN(c2ccccc2)C1	39.1
Cc1cccc2c1[C@]13OC(C)[C@]4(C)CC5OC(=O)[C@@]1(C)[C@@H]5[C@]34C(=O)O2 (stereo not given in full)	> 100

test system: MCF7 breast; assay: NCI anticancer screen, dose series, 48 h

Compound	TGI	GI50
CSC1=C(SC)SC(=C2SC3=C(SC(=C4SCCS4)S3)S2)S1	> 100 µM	
CN(C)C(=O)OCOC(=O)N(C)C	> 100 µM	
CC(=O)Oc1ccccc1-c1cc2ccccc2oc1=O	> 100 µM	
O=C1NC(=O)C(CCO)(c2ccccc2)C(=O)N1	> 100 µM	
COc1ccc2c(c1)CC[C@@H]1[C@@H]2CC[C@]2(C)C(=O)/C(=C/c3ccc(OC)c(OC)c3)C[C@@H]12	> 100 µM	
CC1=C(Br)C(Br)=C(C)S1=O	> 100 µM	
C=C1C(=O)O[C@H]2[C@H]1[C@@H](OC(=O)C=C(C)C)CC1=C[C@@H](C[C@@]3(C)O[C@@H]23)OC1=O	4.39 µM and 6.93 µM	0.603 µM and 2.59 µM
C=CCN1C[C@H](C)N([C@H](c2ccc(C(=O)N(CC)CCO)cc2)c2cccc(OC)c2)C[C@H]1C	> 100 µM	
CCC1OC2C(CC=C(C)C)=C3OC(C)(O)C(C)(CC)C(OC(=O)c4ccccc4)C3=C3OC(=O)C=C1C32 (stereo not given)	> 100 µM	
CN1CCOC1(C)CO (stereo not given)	> 100 µM	
CC(C)CC1[C@@H](OCc2ccccc2)COS(=O)N1Cc1ccccc1 (stereo not given in full)	> 100 µM	
OCC1OC(n2cnc3c2NC=NC[C@H]3O)C(O)C1O (stereo not given in full)	> 450 µM	
CC(=O)OC1CC2c3cccc4c3C(CC2N(C)C1=O)CN4C(=O)c1ccccc1 (stereo not given)	62.9 µM	
COc1ccc2c3c1O[C@H]1C(O)CCC4(O)[C@@H](C2)NCC[C@]314 (stereo not given in full)	> 100 µM	
CNC(=S)N/N=C(C)\C(=N/NC(=S)NC)c1ccccc1	> 100 µM	
COc1ccc2c(c1C)C(=O)C(O)(CC=C(C)C)O2 (stereo not given)	> 100 µM	
CCOC(=O)C1(C(=O)OCC)CN(CC)CN(c2ccccc2)C1	35.1 µM	
Cc1cccc2c1[C@]13OC(C)[C@]4(C)CC5OC(=O)[C@@]1(C)[C@@H]5[C@]34C(=O)O2 (stereo not given in full)	> 100 µM	
CC(=O)OCC1OC(Nc2ncc(-c3ccc(C)cc3)s2)C(OC(C)=O)C(OC(C)=O)C1OC(C)=O (stereo not given)	35.8 µM	

test system: MDA-MB-435; assay: NCI anticancer screen, dose series, 48 h

Compound	TGI [µM]
CSC1=C(SC)SC(=C2SC3=C(SC(=C4SCCS4)S3)S2)S1	> 100
CC(=O)Oc1ccccc1-c1cc2ccccc2oc1=O	> 100
Cc1ccc2nc(-c3ccc(N)c(I)c3)sc2c1	79.1
COc1ccc2c(c1)CC[C@@H]1[C@@H]2CC[C@]2(C)C(=O)/C(=C/c3ccc(OC)c(OC)c3)C[C@@H]12	> 100
Cn1ccc(C(=O)NCCOCCNC(=O)c2ccn(C)c(=O)c2O)c(O)c1=O	> 100
CC1=C(Br)C(Br)=C(C)S1=O	30.9
C=CCN1C[C@H](C)N([C@H](c2ccc(C(=O)N(CC)CCO)cc2)c2cccc(OC)c2)C[C@H]1C	> 100
CCC1OC2C(CC=C(C)C)=C3OC(C)(O)C(C)(CC)C(OC(=O)c4ccccc4)C3=C3OC(=O)C=C1C32 (stereo not given)	> 100
CN1CCOC1(C)CO (stereo not given)	> 100
CC(C)CC1[C@@H](OCc2ccccc2)COS(=O)N1Cc1ccccc1 (stereo not given in full)	> 100
CC(=O)OC1CC2c3cccc4c3C(CC2N(C)C1=O)CN4C(=O)c1ccccc1 (stereo not given)	52.6
COc1ccc2c3c1O[C@H]1C(O)CCC4(O)[C@@H](C2)NCC[C@]314 (stereo not given in full)	> 100
